According to patent US20150105252A1, “SUBSTITUTED PYRAZOLES AS HERBICIDES” (E I DU PONT DE NEMOURS AND COMPANY, priority 2013, published 2015):

Key:
corn = experiment: Test A preemergence; type: in vivo, Zea mays; settings: preemergence; for Corn plant response rating (0 to 100 scale): 125 g ai/ha, visual injury approx. 10 days after treatment; for Corn plant response rating: 500 g ai/ha, visual injury after approx. 10 days, 0 to 100 scale (0 no effect, 100 complete control)
Summary of the method: (§1)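 After sowing in a sand–loam mix, pots received compound preemergence by directed soil spray, or postemergence once plants reached the one- to two-leaf stage (2–10 cm). Formulation contained surfactant in a non-phytotoxic solvent. Injury was scored visually after ~10 greenhouse days, 0–100 scale.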

ducksalad = experiment: Test B flood; type: in vivo, Heteranthera limosa; settings: 250 g ai/ha, visual rating on 0 to 100 scale (0 no effect, 100 complete control), 13 to 15 days
Summary of the method: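 Greenhouse assay lasting 13 to 15 days. Treatment was into water flooding pots 3 cm deep, at the 2-leaf stage, with that level sustained afterwards. Scores compare treated with control plants visually, 100 denoting complete control and 0 no effect; a dash marks no test result.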

johnsongrass = experiment: Test C preemergence; type: in vivo, Sorghum halepense
Summary of the method: (§2)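 Visual control ratings on a 0–100 scale (100 = complete control) made against untreated controls after 13 to 15 days in greenhouse. Compounds applied in surfactant-containing solvent mixture, either preemergence to loam/sand-sown seeds or postemergence to 1- to 4-leaf plants (2–18 cm) in peat medium.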

barnyardgrass = experiment: Test A postemergence; type: in vivo, Echinochloa crus-galli
Summary of the method: as §1

oilseed rape = experiment: Test C preemergence; type: in vivo, Brassica napus
Summary of the method: as §2

morningglory = experiment: Test A preemergence; type: in vivo, Ipomoea spp.; settings: preemergence; for Morningglory plant response rating (0 to 100 scale): 125 g ai/ha, visual injury approx. 10 days after treatment; for Morningglory plant response rating: 500 g ai/ha, visual injury after approx. 10 days, 0 to 100 scale (0 no effect, 100 complete control)
Summary of the method: as §1

wheat = experiment: Test C preemergence; type: in vivo, Triticum aestivum
Summary of the method: as §2

pigweed [1] = experiment: Test A postemergence; type: in vivo, Amaranthus retroflexus; settings: Postemergence
Summary of the method: as §1

blackgrass = experiment: Test C preemergence; type: in vivo, Alopecurus myosuroides; settings: preemergence; for Plant response rating, Blackgrass: 125 g ai/ha, scale 0 to 100, 0 = no effect, 100 = complete control
Summary of the method: as §2

pigweed [2] = experiment: Test A preemergence; type: in vivo, Amaranthus retroflexus; settings: preemergence; for Pigweed plant response rating (0 to 100 scale): 125 g ai/ha, visual injury approx. 10 days after treatment; for Pigweed plant response rating: 500 g ai/ha, visual injury after approx. 10 days, 0 to 100 scale (0 no effect, 100 complete control)
Summary of the method: as §1

crabgrass, large [3] = experiment: Test A postemergence; type: in vivo, Digitaria sanguinalis
Summary of the method: as §1

galium = experiment: Test C preemergence; type: in vivo, Galium aparine
Summary of the method: as §2

crabgrass, large [4] = experiment: Test C preemergence; type: in vivo, Digitaria sanguinalis
Summary of the method: as §2

soybean = experiment: Test C preemergence; type: in vivo, Glycine max
Summary of the method: as §2

[5] = preemergence, 31 g ai/ha, visual rating, scale 0 to 100 (0 no effect, 100 complete control), 13 to 15 days
[6] = preemergence, 62 g ai/ha, scale 0 to 100 (0 no effect, 100 complete control), 13 to 15 days
[7] = preemergence, 125 g ai/ha, 13 to 15 days, scale 0 to 100, 0 = no effect, 100 = complete control
[8] = preemergence, 250 g ai/ha, scale 0 to 100, 0 is no effect, 100 is complete control
[9] = Postemergence, 500 g ai/ha, 0 to 100 scale (0 no effect, 100 complete control)
[10] = postemergence, 125 g ai/ha, about 10 days, visual rating on 0 to 100 scale (0 no effect, 100 complete control)
[11] = 125 g ai/ha, 0 to 100 scale, 0 no effect, 100 complete control
[12] = 500 g ai/ha, 0 to 100 scale (0 no effect, 100 complete control)
[13] = 31 g ai/ha, visual rating, scale 0 to 100 (0 no effect, 100 complete control), 13 to 15 days
[14] = 62 g ai/ha, scale 0 to 100 (0 no effect, 100 complete control), 13 to 15 days
[15] = 250 g ai/ha, scale 0 to 100, 0 is no effect, 100 is complete control
[16] = Preemergence, rate head not shown (block before 16 g ai/ha), scale 0 to 100
[17] = Postemergence, 125 g ai/ha, 0 to 100 scale, 0 no effect, 100 complete control

CCc1cc(C(=O)NCC2CC2)nn1Cc1ccnc(C(F)(F)F)c1 [Compound 199]
Corn plant response rating (0 to 100 scale) (corn): 70
Corn plant response rating (corn): 90
Plant response rating, Ducksalad (ducksalad): 90
Johnsongrass plant response rating (johnsongrass; [5]): 45
Johnsongrass plant response rating (johnsongrass; [6]): 70
Plant response rating, Johnsongrass (johnsongrass; [7]): 98
Johnsongrass plant response rating (johnsongrass; [8]): 100
Barnyardgrass plant response rating (barnyardgrass; [9]): 90
Barnyardgrass plant response rating (barnyardgrass; [10]): 70
Oilseed Rape plant response rating (oilseed rape; [5]): 80
Oilseed Rape plant response rating (oilseed rape; [6]): 95
Plant response rating, Oilseed Rape (oilseed rape; [7]): 100
Oilseed Rape plant response rating (oilseed rape; [8]): 100
Morningglory plant response rating (0 to 100 scale) (morningglory): 90
Morningglory plant response rating (morningglory): 100
Wheat plant response rating (wheat; [5]): 60
Wheat plant response rating (wheat; [6]): 85
Plant response rating, Wheat (wheat; [7]): 90
Wheat plant response rating (wheat; [8]): 90
Pigweed plant response rating (pigweed [1]; [11]): 100
Pigweed plant response rating (pigweed [1]; [12]): 100
Blackgrass plant response rating (blackgrass; [13]): 90
Blackgrass plant response rating (blackgrass; [14]): 90
Plant response rating, Blackgrass (blackgrass; 13 to 15 days): 90
Blackgrass plant response rating (blackgrass; [15]): 90
Pigweed plant response rating (0 to 100 scale) (pigweed [2]): 100
Pigweed plant response rating (pigweed [2]): 100
Crabgrass, Large plant response rating (crabgrass, large [3]; [9]): 90
Crabgrass, Large plant response rating (crabgrass, large [3]; [10]): 90
Galium plant response rating (galium; [5]): 40
Galium plant response rating (galium; [6]): 100
Plant response rating, Galium (galium; [7]): 100
Galium plant response rating (galium; [8]): 100
Crabgrass, Large plant response rating (crabgrass, large [4]; [5]): 98
Crabgrass, Large plant response rating (crabgrass, large [4]; [6]): 100
Plant response rating, Crabgrass, Large (crabgrass, large [4]; [7]): 100
Crabgrass, Large plant response rating (crabgrass, large [4]; [8]): 100
Soybean plant response rating (soybean; [5]): 30
Soybean plant response rating (soybean; [6]): 55
Plant response rating, Soybean (soybean; [7]): 90
Soybean plant response rating (soybean; [8]): 95

CCc1cc(C(=O)NC2CC2)nn1Cc1ccnc(OCC(F)(F)F)c1 [Compound 200]
Corn plant response rating (0 to 100 scale) (corn): 60
Corn plant response rating (corn): 90
Plant response rating, Ducksalad (ducksalad): 80
Johnsongrass plant response rating (johnsongrass; [5]): 50
Johnsongrass plant response rating (johnsongrass; [6]): 80
Plant response rating, Johnsongrass (johnsongrass; [7]): 90
Johnsongrass plant response rating (johnsongrass; [8]): 98
Barnyardgrass plant response rating (barnyardgrass; [9]): 100
Barnyardgrass plant response rating (barnyardgrass; [10]): 90
Oilseed Rape plant response rating (oilseed rape; [5]): 60
Oilseed Rape plant response rating (oilseed rape; [6]): 95
Plant response rating, Oilseed Rape (oilseed rape; [7]): 98
Oilseed Rape plant response rating (oilseed rape; [8]): 98
Morningglory plant response rating (0 to 100 scale) (morningglory): 40
Morningglory plant response rating (morningglory): 100
Wheat plant response rating (wheat; [5]): 0
Wheat plant response rating (wheat; [6]): 15
Plant response rating, Wheat (wheat; [7]): 45
Wheat plant response rating (wheat; [8]): 75
Pigweed plant response rating (pigweed [1]; [11]): 100
Pigweed plant response rating (pigweed [1]; [12]): 100
Blackgrass plant response rating (blackgrass; [13]): 50
Blackgrass plant response rating (blackgrass; [14]): 80
Plant response rating, Blackgrass (blackgrass; 13 to 15 days): 90
Blackgrass plant response rating (blackgrass; [15]): 90
Pigweed plant response rating (0 to 100 scale) (pigweed [2]): 100
Pigweed plant response rating (pigweed [2]): 100
Crabgrass, Large plant response rating (crabgrass, large [3]; [9]): 100
Crabgrass, Large plant response rating (crabgrass, large [3]; [10]): 100
Galium plant response rating (galium; [5]): 85
Galium plant response rating (galium; [6]): 100
Plant response rating, Galium (galium; [7]): 100
Galium plant response rating (galium; [8]): 100
Crabgrass, Large plant response rating (crabgrass, large [4]; [5]): 100
Crabgrass, Large plant response rating (crabgrass, large [4]; [6]): 100
Plant response rating, Crabgrass, Large (crabgrass, large [4]; [7]): 100
Crabgrass, Large plant response rating (crabgrass, large [4]; [8]): 100
Soybean plant response rating (soybean; [5]): 50
Soybean plant response rating (soybean; [6]): 70
Plant response rating, Soybean (soybean; [7]): 70
Soybean plant response rating (soybean; [8]): 85

CCc1cc(C(=O)NC2CC2)nn1Cc1cc(C(F)(F)C(F)(F)F)nn1C [Compound 226]
Corn plant response rating (0 to 100 scale) (corn): 30
Corn plant response rating (corn): 50
Plant response rating, Ducksalad (ducksalad): 90
Plant response rating, Johnsongrass (johnsongrass; [16]): 10
Johnsongrass plant response rating (johnsongrass; [6]): 55
Plant response rating, Johnsongrass (johnsongrass; [7]): 100
Johnsongrass plant response rating (johnsongrass; [8]): 85
Barnyardgrass plant response rating (barnyardgrass; [17]): 60
Barnyardgrass plant response rating (barnyardgrass; [9]): 90
Plant response rating, Oilseed Rape (oilseed rape; [16]): 30
Oilseed Rape plant response rating (oilseed rape; [6]): 85
Plant response rating, Oilseed Rape (oilseed rape; [7]): 100
Oilseed Rape plant response rating (oilseed rape; [8]): 95
Morningglory plant response rating (0 to 100 scale) (morningglory): 100
Plant response rating, Wheat (wheat; [16]): 15
Wheat plant response rating (wheat; [6]): 0
Plant response rating, Wheat (wheat; [7]): 0
Wheat plant response rating (wheat; [8]): 10
Pigweed plant response rating (pigweed [1]; [11]): 100
Pigweed plant response rating (pigweed [1]; [12]): 100
Blackgrass plant response rating (blackgrass; [13]): 60
Blackgrass plant response rating (blackgrass; [14]): 85
Plant response rating, Blackgrass (blackgrass; 13 to 15 days): 70
Blackgrass plant response rating (blackgrass; [15]): 90
Pigweed plant response rating (0 to 100 scale) (pigweed [2]): 100
Crabgrass, Large plant response rating (crabgrass, large [3]; [17]): 70
Crabgrass, Large plant response rating (crabgrass, large [3]; [9]): 90
Plant response rating, Galium (galium; [16]): 0
Galium plant response rating (galium; [6]): 90
Plant response rating, Galium (galium; [7]): 80
Galium plant response rating (galium; [8]): 90
Plant response rating, Crabgrass, Large (crabgrass, large [4]; [16]): 80
Crabgrass, Large plant response rating (crabgrass, large [4]; [6]): 100
Plant response rating, Crabgrass, Large (crabgrass, large [4]; [7]): 100
Crabgrass, Large plant response rating (crabgrass, large [4]; [8]): 100
Plant response rating, Soybean (soybean; [16]): 10
Soybean plant response rating (soybean; [6]): 70
Plant response rating, Soybean (soybean; [7]): 95
Soybean plant response rating (soybean; [8]): 100
